Key:
AR 1.0 cells [1] = assay: Drug accumulation assay: daunorubicin accumulation in AR 1.0 cells; assay type: cell-based; settings: Mus musculus, 100% = accumulation with verapamil 100 μM, 1 hr, 37° C.
Summary of the method: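 Daunorubicin accumulation was measured in cells plated 48 h beforehand. These were AR 1.0 cells, an MDR-resistant derivative of mouse EMT6 mammary carcinoma, cultured at 37 °C in 5% CO2 in RPMI 1640 plus 10% foetal calf serum and 2 mM glutamine.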

AR 1.0 cells [2] = assay: Potentiation of doxorubicin toxicity: proliferation assay (sulphorhodamine B); assay type: cell-based, mouse
Text: (a) Selected compounds of formula (I) were examined for their ability to potentiate the toxicity of doxorubicin in AR 1.0 cells.

AR 1.0 cells [3] = assay: Potentiation index with doxorubicin titration; assay type: cell-based, mouse; settings: for Potentiation Index at RMA concentration 10 nM: Table C1, RMA 10 nM; for Potentiation Index at RMA concentration 30 nM: Table C1, RMA 30 nM; for Potentiation Index at RMA concentration 50 nM: Table C1, RMA 50 nM; for Potentiation Index at RMA concentration 100 nM: Table C1, RMA 100 nM
Experimental: The EMT6 mouse mammary carcinoma cell line and the MDR resistant subline AR 1.0 were cultured in RPMI 1640 medium containing 10% foetal calf serum and 2 mM glutamine at 37° C. in 5% CO2. Cells were passaged between 1 in 200 and 1 in 2000 in the case of the parental cell line and between 1 in 20 and 1 in 200 in the case of the MDR resistant subline, after trypsinisation (0.25% trypsin, 0.2 gl^-1, EDTA). […]
(b) Cells were cultured for four days with a titration of doxorubicin (0.263 nM-17.24 μM) in the presence of a fixed concentration of each compound. Proliferation was quantified as described by Skehen et al, loc cit. The IC50 (concentration required to reduce proliferation to 50% of the untreated controls) for doxorubicin alone and with each compound were derived and used to calculate the potentiation index (PI): [formula]

[4] = Mus musculus, 96 h, compound alone, four day proliferation, read-out: Compound Toxicity (IC50)
[5] = with fixed doxorubicin 0.34 μm, four days, 5760 min, read-out: Toxicity with Cytotoxic Agent (IC50)

| SMILES | IC50 (AR 1.0 cells [1]) | IC50 (AR 1.0 cells [2]; [4]) | IC50 (AR 1.0 cells [2]; [5]) | Potentiation Index at RMA concentration 10 nM (AR 1.0 cells [3]) | Potentiation Index at RMA concentration 30 nM (AR 1.0 cells [3]) | Potentiation Index at RMA concentration 50 nM (AR 1.0 cells [3]) | Potentiation Index at RMA concentration 100 nM (AR 1.0 cells [3]) | toxicity of doxorubicin alone to AR 1.0 cells (AR 1.0 cells [2]; fixed concentration 0.34 μm) |
| --- | --- | --- | --- | --- | --- | --- | --- | --- |
| COc1cc2c(cc1OC)CN(CCNC(=O)c1ccccc1NC(=O)c1ccc(N(C)C)cc1)CC2 [compound 9256] | 1700 nM | 40000 nM | 300 nM |  |  |  |  |  |
| CCN(CC)c1ccc(C(=O)Nc2ccccc2C(=O)NCCN2CCc3cc(OC)c(OC)cc3C2)cc1 [compound 9310, 2-(4-Diethylamino-benzoylamino)-N-[2-(6,7-dimethoxy-3,4-dihydro-1H-isoquinolin-2-yl)-ethyl]-benzamide] | 1200 nM | 22000 nM | 240 nM |  |  |  |  |  |
| COc1cc2c(cc1OC)CN(CCNC(=O)c1ccccc1NC(=O)c1ccc(C(C)(C)C)cc1)CC2 [compound 9334, 2-(4-tert-Butyl-benzoylamino)-N-[2-(6,7-dimethoxy-3,4-dihydro-1H-isoquinolin-2-yl)-ethyl]-benzamide] | 1300 nM | 8000 nM | 50 nM |  |  |  |  |  |
| COc1cc2c(cc1OC)CN(CCNC(=O)c1ccccc1NC(=O)c1cnc3ccccc3n1)CC2 [compound 9347, Quinoxaline-2-carboxylic acid {2-[2-(6,7-dimethoxy-3,4-dihydro-1H-isoquinolin-2-yl)-ethylcarbamoyl]-phenyl}-amide] | 3000 nM | 35000 nM | 600 nM |  |  |  |  |  |
| COc1cc2c(cc1OC)CN(CCNC(=O)c1ccccc1NC(=O)c1ccccc1)CC2 [compound 9351, 2-Benzoylamino-N-[2-(6,7-dimethoxy-3,4-dihydro-1H-isoquinolin-2-yl)-ethyl]-benzamide] | 9000 nM | 43000 nM | 1300 nM |  |  |  |  |  |
| COc1cc2c(cc1OC)CN(CCNC(=O)c1ccccc1NC(=O)c1ccsc1)CC2 [compound 9365, Thiophene-3-carboxylic acid {2-[2-(6,7-dimethoxy-3,4-dihydro-1H-isoquinolin-2-yl)-ethylcarbamoyl]-phenyl}-amide] | 2000 nM | 42000 nM | 800 nM |  |  |  |  |  |
| COc1cc2c(cc1OC)CN(CCNC(=O)c1ccccc1NC(=O)c1cc3ccccc3[nH]1)CC2 [compound 9367] | 1000 nM | 15000 nM | 500 nM |  |  |  |  |  |
| COc1cc2c(cc1OC)CN(CCNC(=O)c1ccccc1NC(=O)c1ccc(Br)cc1)CC2 [compound 9380, 2-(4-Bromo-benzoylamino)-N-[2-(6,7-dimethoxy-3,4-dihydro-1H-isoquinolin-2-yl)-ethyl]-benzamide] | 900 nM | 40000 nM | 500 nM |  |  |  |  |  |
| COc1cc2c(cc1OC)CN(CCNC(=O)c1ccccc1NC(=O)c1ccc([N+](=O)[O-])cc1)CC2 [compound 9381, 2-(4-Nitro-benzoylamino)-N-[2-(6,7-dimethoxy-3,4-dihydro-1H-isoquinolin-2-yl)-ethyl]-benzamide] | 3000 nM | 50000 nM | 1500 nM |  |  |  |  |  |
| COc1cc2c(cc1OC)CN(CCNC(=O)c1ccccc1NC(=O)c1nccc3ccccc13)CC2 [compound 9383, Isoquinoline-1-carboxylic acid {2-[2-(6,7-dimethoxy-3,4-dihydro-1H-isoquinolin-2-yl)-ethylcarbamoyl]-phenyl}-amide] | 2000 nM | 40000 nM |  |  |  |  |  |  |
| COc1cc2c(cc1OC)CN(CCNC(=O)c1ccccc1NC(=O)c1ccc3ccccc3n1)CC2 [compound 9385, Quinoline-2-carboxylic acid {2-[2-(6,7-dimethoxy-3,4-dihydro-1H-isoquinolin-2-yl)-ethylcarbamoyl]-phenyl}-amide] | 1200 nM | 40000 nM |  |  |  |  |  |  |
| COc1cc2c(cc1OC)CN(CCNC(=O)c1ccccc1NC(=O)c1cc3ccccc3cn1)CC2 [compound 9389, Isoquinoline-3-carboxylic acid {2-[2-(6,7-dimethoxy-3,4-dihydro-1H-isoquinolin-2-yl)-ethylcarbamoyl]-phenyl}-amide] | 1800 nM | 30000 nM |  |  |  |  |  |  |
| COc1cc2c(cc1OC)CN(CCNC(=O)c1cc(-c3ccccc3)ccc1NC(=O)c1ccc(C(C)C)cc1)CC2 [compound 9432, 2-(4-Isopropyl-benzoylamino)-N-[2-(6,7-dimethoxy-3,4-dihydro-1H-isoquinolin-2-yl)-ethyl]-5-phenyl-benzamide] | 3200 nM | 35000 nM | 200 nM |  |  |  |  |  |
| COc1cc2c(cc1OC)CN(CCc1ccc(NC(=O)c3ccccc3NC(=O)c3cnc4ccccc4c3)c(C)c1)CC2 [compound 9650, Quinoline-3-carboxylic acid (2-{4-[2-(6,7-dimethoxy-3,4-dihydro-1H-isoquinolin-2-yl)-ethyl]-2-methyl-phenylcarbamoyl}-phenyl)-amide] | 61 nM |  |  | 3 | 3 | 14 | 33 |  |
| COc1cc(CCN2CCc3cc(OC)c(OC)cc3C2)ccc1NC(=O)c1ccccc1NC(=O)c1cnc2ccccc2c1 [compound 9651, Quinoline-3-carboxylic acid (2-{4-[2-(6,7-dimethoxy-3,4-dihydro-1H-isoquinolin-2-yl)-ethyl]-2-methoxy-phenylcarbamoyl}-phenyl)-amide] | 71 nM |  |  |  |  | 1.1 | 2.2 |  |
| COc1ccc(CN(C)Cc2ccc(NC(=O)c3ccccc3NC(=O)c3cnc4ccccc4c3)cc2)cc1OC(C)C [compound 9652, Quinoline-3-carboxylic acid [2-(4-{[(3-isopropoxy-4-methoxy-benzyl)-methyl-amino]-methyl}-phenylcarbamoyl)-phenyl]-amide] | 64 nM |  |  |  | 1.2 | 1.8 | 7.6 |  |
| CN(CCc1ccc(NC(=O)c2ccccc2NC(=O)c2cnc3ccccc3c2)cc1)Cc1ccc(N(C)C)cc1 [compound 9655, Quinoline-3-carboxylic acid [2-(4-{2-[(4-dimethylamino-benzyl)-methyl-amino]-ethyl}-phenylcarbamoyl)-phenyl]-amide] | 557 nM |  |  | 1.8 | 13 | 37 | 65 |  |
| COc1cc2c(cc1OC)CN(CCCc1cccc(NC(=O)c3ccccc3NC(=O)c3cnc4ccccc4c3)c1)CC2 [compound 9660, Quinoline-3-carboxylic acid (2-{3-[3-(6,7-dimethoxy-31 4-dihydro-1H-isoquinolin-2-yi)-propyl]-phenyicarbamoyi}-phenyi)-atnide] | 6420 nM |  |  |  | 1.1 | 1.2 | 1.4 |  |
| COc1ccc(CN(C)Cc2ccc(NC(=O)c3ccccc3NC(=O)c3cccnc3)cc2)cc1OC(C)C [compound 9661, N-[2-(4-{[(3-Isopropoxy-4-methoxy-benzyl)-methyl-amino]-methyl}-phenylcarbamoyl)-phenyl]-nicotinamide] | 362 nM |  |  | 1.2 | 38 | 71 | 195 |  |
| COc1ccc(CN(C)CCc2ccc(NC(=O)c3ccc(Cl)cc3NC(=O)c3cnc4ccccc4c3)cc2)cc1OC [compound 9663, Quinoline-3-carboxylic acid [5-chloro-2-(4-{2-[(3-4-dimethoxy-benzyl)-methyl-amino]-ethyl}-phenylcarbamoyl)-phenyl]-amide] | 175 nM |  |  | 50 | 80 | 74 | 82 |  |
| O=C(Nc1ccccc1C(=O)Nc1ccc(CCN2CCc3cc4c(cc3C2)OCO4)cc1)c1cnc2ccccc2c1 [compound 9664, Quinoline-3-carboxylic acid (2-{4-[2-(7,8-dihydro-5H-[1,3]dioxolo[4,5-g]isoquinolin-6-yl)-ethyl]-phenylcarbamoyl}-phenyl)-amide] | 1680 nM |  |  | 1 | 1.9 | 37 | 116 |  |
| CCOc1cc2c(cc1OCC)CN(CCc1ccc(NC(=O)c3ccccc3NC(=O)c3cnc4ccccc4c3)cc1)CC2 [compound 9665, Quinoline-3-carboxylic acid (2-{4-[2-(6,7-diethoxy-3,4-dihydro-1H-isoquinolin-2-yl)-ethyl]-phenylcarbamoyl}-phenyl)-amide] | 389 nM |  |  | 1.4 | 7 | 28 | 50 |  |
| COc1cccc2c1C(=O)c1c(O)c3c(c(O)c1C2=O)C[C@@](O)(C(=O)CO)C[C@@H]3O[C@H]1C[C@H](N)[C@H](O)[C@H](C)O1 [doxorubicin, reference compound] |  |  |  |  |  |  |  | non-toxic |
